{"source": "patent US8357501B2", "about": "“Tissue protective erythropoietin receptor (NEPOR) and methods of use” (Molecular Health GmbH, priority 2007, dated 2013)", "key": {"[1]": {"conditions": "351 patients receiving radiotherapy; 3 times per week, from 10 to 14 days before and through radiation therapy; placebo 15%; cited from earlier work"}, "HeyA8-MDR cells": {"test_system": "HeyA8-MDR cells", "test": "EPH-B4 siRNA effect on tumor promoting effect of EPO in nude mice (FIG. 17)", "assay_type": "in vivo", "conditions": "HeyA8 MDR i.p.", "description": "Female nude mice were injected i.p. with 1×10^6 HeyA8-MDR cells. Day eight following injection the cells were treated with control siRNA-DOPC, EPH-B4 siRNA-DOPC, EPO, or in EPO+ control or EPH-B4 siRNA-DOPC (10 per group). (50 U EPO given 3× week, 5 μg siRNA 2× week). Mice were sacrificed on day 25 and tumor weights were measured. Statistics were done using students T-test. B) Distribution of tumor weight per group.\nIn these experiments we sought to determine the response to erythropoietin (EPO) treatment in a panel of ovarian cancer cell lines. […] It was then necessary to determine protein expression of these receptors in the panel. […] We then categorized these expression changes particularly with regard to the EPOR and EPH-B4 to then analyze the response to EPO treatment. We analyzed their response to chemotherapy in conjunction with EPO. […] It was then necessary to analyze the activation of signaling pathways known to be activated by these receptors in response to EPO treatment. Three cell lines were starved for two hours to isolate their response to EPO. […] We then sought to determine a EPO dose that optimized its tumor promoting effect in vivo. Female nude mice were injected i.p. with HeyA8 MDR (positive for both EPOR and EPH-B4). […] Treatment continued until tumors became evident, the mice were then sacrificed and the tumor weight was determined. […]"}, "tissue injury": {"test_system": "tissue injury", "conditions": "wide variety of in vivo and in vitro models, cited from earlier work"}, "erythropoiesis": {"test_system": "erythropoiesis", "conditions": "cited from earlier work"}, "[2]": {"test_system": "EphB4 expression in the transiently transfected 293T cell line", "test": "EphB4 knockdown by antisense ODN in transiently transfected cells", "assay_type": "cell-based", "conditions": "cytosine at the CpG site methylated, compared with AS-10; data not shown"}}, "note": "Like-named read-outs stand apart in the source and are kept apart here. [5mC] = 5-methylcytosine"}
{"substance": "epoetin beta: EPO in the form of epoetin beta, NeoRecormon from Roche", "values": [{"measurement": "patients with increased haemoglobin levels", "setting": "[1]", "value": 82, "unit": "%"}]}
{"substance": "EPH-B4 siRNA: siRNA specific to EPH-B4, sense 5′CAGCCAAUAGCCACUCUAA3′ (SEQ ID NO: 266), antisense 5′UUAGAGUGGCUAUUGGCUG3′ (SEQ ID NO: 267) (listed as RNA, chemistry not given here; listed as Homo sapiens)", "values": [{"measurement": "EPO induced tumor growth", "setting": "HeyA8-MDR cells; siRNA 5 μg 2× week in conjunction with EPO 50 U 3× week", "value": "completely abrogated"}, {"measurement": "tumor growth", "setting": "HeyA8-MDR cells; siRNA alone, 5 μg siRNA 2× week from day eight", "value": "decrease"}]}
{"substance": "CEpo: carbamylated Epo, does not stimulate erythropoiesis (Leist et al.)", "values": [{"measurement": "tissue injury / neuroprotection", "setting": "tissue injury", "value": "prevents"}, {"measurement": "tissue injury / neuroprotection", "setting": "tissue injury; listed as carbamylated EPO", "value": "neuroprotective"}, {"measurement": "stimulation of erythropoiesis / haematopoiesis", "setting": "erythropoiesis", "value": "does not stimulate"}, {"measurement": "stimulation of erythropoiesis / haematopoiesis", "setting": "erythropoiesis; listed as carbamylated EPO", "value": "fail to induce haematopoiesis"}]}
{"substance": "AS-10M: antisense ODN AS-10 with the cytosine at the CpG site methylated (ATGGAGGCCTCGCTCAGAAA; DNA, [5mC] at 11, backbone and methylation of C not given here; listed as Homo sapiens)", "values": [{"measurement": "EphB4 knockdown efficiency", "setting": "[2]", "value": "without any loss"}]}
